Data reported in ChEMBL document CHEMBL5137051 (Eur J Med Chem, 2022).
Active and inactive are the calls of the source. The calls are words filed in the database; no cut-off is given here.

Legend:
[1] = molecular target: Epidermal growth factor receptor (Homo sapiens, UniProt P00533); test: Inhibition of wild type EGFR (unknown origin) by mobility shift assay
[2] = molecular target: Epidermal growth factor receptor (Homo sapiens, UniProt P00533, L858R/T790M); test: Inhibition of EGFR L858R/T790M mutant (unknown origin) by mobility shift assay
Chain of Epidermal growth factor receptor (Homo sapiens, UniProt P00533, L858R/T790M) (P00533 25-1210 T790M/L858R limits assumed): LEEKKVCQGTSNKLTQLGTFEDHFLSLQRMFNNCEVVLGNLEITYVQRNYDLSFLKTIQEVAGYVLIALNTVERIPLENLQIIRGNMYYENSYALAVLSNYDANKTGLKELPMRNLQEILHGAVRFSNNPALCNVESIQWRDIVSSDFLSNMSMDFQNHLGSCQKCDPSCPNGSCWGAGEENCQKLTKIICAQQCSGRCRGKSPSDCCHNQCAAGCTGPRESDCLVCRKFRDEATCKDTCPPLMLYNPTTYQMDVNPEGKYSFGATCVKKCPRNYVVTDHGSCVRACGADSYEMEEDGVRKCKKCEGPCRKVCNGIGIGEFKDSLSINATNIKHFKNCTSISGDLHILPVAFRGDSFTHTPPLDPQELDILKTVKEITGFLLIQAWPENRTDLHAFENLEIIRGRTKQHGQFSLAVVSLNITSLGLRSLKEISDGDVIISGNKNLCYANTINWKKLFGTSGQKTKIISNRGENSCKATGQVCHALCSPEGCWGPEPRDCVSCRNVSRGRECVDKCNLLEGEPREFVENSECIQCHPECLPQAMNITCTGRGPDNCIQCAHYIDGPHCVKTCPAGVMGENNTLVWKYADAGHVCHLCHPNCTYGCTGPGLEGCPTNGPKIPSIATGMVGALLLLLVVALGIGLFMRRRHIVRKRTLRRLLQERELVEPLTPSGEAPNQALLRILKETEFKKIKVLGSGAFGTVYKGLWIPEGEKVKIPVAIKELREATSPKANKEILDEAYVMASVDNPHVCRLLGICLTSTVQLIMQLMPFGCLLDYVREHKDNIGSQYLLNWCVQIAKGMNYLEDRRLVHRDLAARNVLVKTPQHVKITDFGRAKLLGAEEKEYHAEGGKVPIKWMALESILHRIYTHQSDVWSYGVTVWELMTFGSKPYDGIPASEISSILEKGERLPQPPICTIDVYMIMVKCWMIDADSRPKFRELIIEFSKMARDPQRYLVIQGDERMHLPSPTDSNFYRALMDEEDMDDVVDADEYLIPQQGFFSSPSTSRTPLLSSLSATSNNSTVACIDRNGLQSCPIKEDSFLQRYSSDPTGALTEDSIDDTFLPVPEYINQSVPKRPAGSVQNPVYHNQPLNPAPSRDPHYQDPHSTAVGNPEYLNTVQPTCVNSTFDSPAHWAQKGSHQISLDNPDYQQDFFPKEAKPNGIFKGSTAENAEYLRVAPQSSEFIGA

[3] = molecular target: Epidermal growth factor receptor (Homo sapiens, UniProt P00533, C797S/L858R/T790M); test: Inhibition of EGFR L858R/T790M/C797S mutant (unknown origin) by mobility shift assay
Chain of Epidermal growth factor receptor (Homo sapiens, UniProt P00533, C797S/L858R/T790M) (P00533 25-1210 T790M/C797S/L858R limits assumed): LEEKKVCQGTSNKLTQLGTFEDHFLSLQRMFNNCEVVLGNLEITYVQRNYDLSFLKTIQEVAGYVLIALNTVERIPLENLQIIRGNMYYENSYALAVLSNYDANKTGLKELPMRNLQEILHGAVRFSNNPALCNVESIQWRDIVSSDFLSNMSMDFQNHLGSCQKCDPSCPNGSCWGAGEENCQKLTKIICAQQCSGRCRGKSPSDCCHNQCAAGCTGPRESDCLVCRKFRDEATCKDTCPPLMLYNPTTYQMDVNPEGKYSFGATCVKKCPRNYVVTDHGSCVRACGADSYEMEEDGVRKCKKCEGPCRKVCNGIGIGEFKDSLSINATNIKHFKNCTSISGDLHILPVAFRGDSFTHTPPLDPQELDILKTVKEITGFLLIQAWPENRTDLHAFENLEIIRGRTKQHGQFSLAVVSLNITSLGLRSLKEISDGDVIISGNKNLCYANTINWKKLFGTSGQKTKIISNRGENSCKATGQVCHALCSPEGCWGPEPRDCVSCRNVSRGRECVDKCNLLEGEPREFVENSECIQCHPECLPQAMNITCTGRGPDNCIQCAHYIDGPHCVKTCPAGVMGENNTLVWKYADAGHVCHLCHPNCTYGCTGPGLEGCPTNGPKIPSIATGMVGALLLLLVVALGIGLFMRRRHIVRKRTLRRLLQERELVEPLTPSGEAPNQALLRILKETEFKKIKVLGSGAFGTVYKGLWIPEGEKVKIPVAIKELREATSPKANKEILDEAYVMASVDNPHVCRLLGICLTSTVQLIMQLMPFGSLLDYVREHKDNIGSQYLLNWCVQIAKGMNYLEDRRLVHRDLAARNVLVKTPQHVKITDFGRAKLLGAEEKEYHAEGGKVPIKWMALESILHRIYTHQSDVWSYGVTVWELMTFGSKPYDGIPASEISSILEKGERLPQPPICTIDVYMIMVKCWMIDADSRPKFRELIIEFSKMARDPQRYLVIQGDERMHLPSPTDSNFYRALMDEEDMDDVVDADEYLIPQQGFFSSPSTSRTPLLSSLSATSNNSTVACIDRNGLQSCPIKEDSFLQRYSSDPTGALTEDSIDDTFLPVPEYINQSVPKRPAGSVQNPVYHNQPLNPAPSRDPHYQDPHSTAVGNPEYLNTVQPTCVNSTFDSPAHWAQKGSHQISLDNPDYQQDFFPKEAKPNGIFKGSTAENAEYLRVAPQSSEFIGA

[4] = molecular target: Hepatocyte growth factor receptor (Homo sapiens, UniProt P08581); test: Inhibition of c-Met (unknown origin) by mobility shift assay
Chain of Hepatocyte growth factor receptor (P08581 whole entry): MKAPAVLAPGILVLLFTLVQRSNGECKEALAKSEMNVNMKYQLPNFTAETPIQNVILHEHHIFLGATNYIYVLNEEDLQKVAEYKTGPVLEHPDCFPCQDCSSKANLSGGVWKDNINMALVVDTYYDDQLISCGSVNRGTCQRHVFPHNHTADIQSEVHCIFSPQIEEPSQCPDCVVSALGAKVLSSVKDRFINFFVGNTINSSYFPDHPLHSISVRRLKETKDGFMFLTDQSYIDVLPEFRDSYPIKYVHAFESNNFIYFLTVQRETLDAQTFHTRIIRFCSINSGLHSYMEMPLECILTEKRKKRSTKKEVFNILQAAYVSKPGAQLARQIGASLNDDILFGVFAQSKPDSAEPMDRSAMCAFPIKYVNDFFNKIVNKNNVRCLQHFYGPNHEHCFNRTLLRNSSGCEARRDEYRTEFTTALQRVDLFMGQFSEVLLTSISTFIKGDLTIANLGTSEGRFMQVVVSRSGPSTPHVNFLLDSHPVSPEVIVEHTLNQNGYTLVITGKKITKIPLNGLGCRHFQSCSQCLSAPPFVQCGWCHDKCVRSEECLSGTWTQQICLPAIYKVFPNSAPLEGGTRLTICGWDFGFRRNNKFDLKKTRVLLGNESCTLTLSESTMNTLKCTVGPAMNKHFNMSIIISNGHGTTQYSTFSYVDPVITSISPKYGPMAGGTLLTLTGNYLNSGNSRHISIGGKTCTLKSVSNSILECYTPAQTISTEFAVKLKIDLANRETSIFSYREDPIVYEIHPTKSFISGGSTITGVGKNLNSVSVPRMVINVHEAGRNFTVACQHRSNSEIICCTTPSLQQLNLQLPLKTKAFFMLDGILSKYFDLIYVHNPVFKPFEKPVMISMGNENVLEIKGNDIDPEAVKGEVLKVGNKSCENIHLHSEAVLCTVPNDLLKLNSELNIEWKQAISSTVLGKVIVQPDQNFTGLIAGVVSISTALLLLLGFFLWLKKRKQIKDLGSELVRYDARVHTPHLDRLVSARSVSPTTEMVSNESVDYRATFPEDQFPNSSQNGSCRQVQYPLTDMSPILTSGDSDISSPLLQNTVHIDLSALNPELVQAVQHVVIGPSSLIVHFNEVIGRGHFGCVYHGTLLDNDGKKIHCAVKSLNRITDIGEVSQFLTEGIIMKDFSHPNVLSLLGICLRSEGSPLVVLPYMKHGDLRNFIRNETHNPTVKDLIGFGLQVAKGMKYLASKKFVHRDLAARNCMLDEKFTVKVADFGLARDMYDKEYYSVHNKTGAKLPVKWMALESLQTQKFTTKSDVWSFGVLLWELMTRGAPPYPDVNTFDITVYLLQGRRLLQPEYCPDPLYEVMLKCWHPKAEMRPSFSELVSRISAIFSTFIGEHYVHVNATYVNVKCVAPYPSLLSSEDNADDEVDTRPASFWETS

A549 [5] = test: Antiproliferative activity against human A549 cells assessed as cell viability after 72 hrs by MTT assay; format: functional, cell-based; details: A549, 72 h
NCI-H1975 [6] = test: Antiproliferative activity against human H1975 cells assessed as cell viability after 72 hrs by MTT assay; format: functional, cell-based; details: NCI-H1975, 72 h
A549 [7] = test: Induction of apoptosis in human A549 cells assessed as cell shrinkage after 48 hrs by AO/EB staining based fluorescent microscopic analysis; format: functional; details: dose 0.1-10 µM, DDE = dose-dependent effect
A549 [8] = test: Induction of apoptosis in human A549 cells assessed as chromatin condensation after 48 hrs by AO/EB staining based fluorescent microscopic analysis; format: functional, cell-based; details: dose 0.1-10 µM, DDE = dose-dependent effect
NCI-H1975 [9] = test: Induction of apoptosis in human H1975 cells assessed as cell shrinkage after 48 hrs by AO/EB staining based fluorescent microscopic analysis; format: functional; details: dose 0.1-10 µM, DDE = dose-dependent effect
NCI-H1975 [10] = test: Induction of apoptosis in human H1975 cells assessed as chromatin condensation after 48 hrs by AO/EB staining based fluorescent microscopic analysis; format: functional, cell-based; details: dose 0.1-10 µM, DDE = dose-dependent effect
A549 [11] = test: Inhibition of cell migration of human A549 cells at 0.1 to 1 uM after 24 hrs by scratch wound healing assay; format: functional, cell-based; details: dose 0.1-1 µM
NCI-H1975 [12] = test: Inhibition of cell migration of human H1975 cells at 0.1 to 1 uM after 24 hrs by scratch wound healing assay; format: functional, cell-based; details: dose 0.1-1 µM
NCI-H1975 [13] = test: Induction of cell cycle arrest in human H1975 cells assessed as number of cells at S phase at 1.3 uM after 24 hrs by flow cytometry (reference value: 25.41%); format: functional
NCI-H1975 [14] = test: Induction of cell cycle arrest in human H1975 cells assessed as number of cells at S phase at 4 uM after 24 hrs by flow cytometry (reference value: 25.41%); format: functional
NCI-H1975 [15] = test: Induction of cell cycle arrest in human H1975 cells assessed as number of cells at S phase at 12 uM after 24 hrs by flow cytometry (reference value: 25.41%); format: functional
NCI-H1975 [16] = test: Induction of cell cycle arrest in human H1975 cells assessed as number of cells at G2/M phase at 1.3 uM after 24 hrs by flow cytometry (reference value: 31.41%); format: functional
NCI-H1975 [17] = test: Induction of cell cycle arrest in human H1975 cells assessed as number of cells at G2/M phase at 4 uM after 24 hrs by flow cytometry (reference value: 31.41%); format: functional
NCI-H1975 [18] = test: Induction of cell cycle arrest in human H1975 cells assessed as number of cells at G2/M phase at 12 uM after 24 hrs by flow cytometry (reference value: 31.41%); format: functional
NCI-H1975 [19] = test: Induction of cell cycle arrest in human H1975 cells assessed as number of cells at G1/G0 phase at 1.3 uM after 24 hrs by flow cytometry (reference value: 43.18%); format: functional
NCI-H1975 [20] = test: Induction of cell cycle arrest in human H1975 cells assessed as number of cells at G1/G0 phase at 4 uM after 24 hrs by flow cytometry (reference value: 43.18%); format: functional
NCI-H1975 [21] = test: Induction of cell cycle arrest in human H1975 cells assessed as number of cells at G1/G0 phase at 12 uM after 24 hrs by flow cytometry (reference value: 43.18%); format: functional
[22] = test system: Epidermal growth factor receptor (Homo sapiens), P00533 [L858R,T790M,C797S]; details: dose 300.0 nM
Chain of Epidermal growth factor receptor (Homo sapiens), P00533 [L858R,T790M,C797S] (P00533 whole entry T790M/C797S/L858R): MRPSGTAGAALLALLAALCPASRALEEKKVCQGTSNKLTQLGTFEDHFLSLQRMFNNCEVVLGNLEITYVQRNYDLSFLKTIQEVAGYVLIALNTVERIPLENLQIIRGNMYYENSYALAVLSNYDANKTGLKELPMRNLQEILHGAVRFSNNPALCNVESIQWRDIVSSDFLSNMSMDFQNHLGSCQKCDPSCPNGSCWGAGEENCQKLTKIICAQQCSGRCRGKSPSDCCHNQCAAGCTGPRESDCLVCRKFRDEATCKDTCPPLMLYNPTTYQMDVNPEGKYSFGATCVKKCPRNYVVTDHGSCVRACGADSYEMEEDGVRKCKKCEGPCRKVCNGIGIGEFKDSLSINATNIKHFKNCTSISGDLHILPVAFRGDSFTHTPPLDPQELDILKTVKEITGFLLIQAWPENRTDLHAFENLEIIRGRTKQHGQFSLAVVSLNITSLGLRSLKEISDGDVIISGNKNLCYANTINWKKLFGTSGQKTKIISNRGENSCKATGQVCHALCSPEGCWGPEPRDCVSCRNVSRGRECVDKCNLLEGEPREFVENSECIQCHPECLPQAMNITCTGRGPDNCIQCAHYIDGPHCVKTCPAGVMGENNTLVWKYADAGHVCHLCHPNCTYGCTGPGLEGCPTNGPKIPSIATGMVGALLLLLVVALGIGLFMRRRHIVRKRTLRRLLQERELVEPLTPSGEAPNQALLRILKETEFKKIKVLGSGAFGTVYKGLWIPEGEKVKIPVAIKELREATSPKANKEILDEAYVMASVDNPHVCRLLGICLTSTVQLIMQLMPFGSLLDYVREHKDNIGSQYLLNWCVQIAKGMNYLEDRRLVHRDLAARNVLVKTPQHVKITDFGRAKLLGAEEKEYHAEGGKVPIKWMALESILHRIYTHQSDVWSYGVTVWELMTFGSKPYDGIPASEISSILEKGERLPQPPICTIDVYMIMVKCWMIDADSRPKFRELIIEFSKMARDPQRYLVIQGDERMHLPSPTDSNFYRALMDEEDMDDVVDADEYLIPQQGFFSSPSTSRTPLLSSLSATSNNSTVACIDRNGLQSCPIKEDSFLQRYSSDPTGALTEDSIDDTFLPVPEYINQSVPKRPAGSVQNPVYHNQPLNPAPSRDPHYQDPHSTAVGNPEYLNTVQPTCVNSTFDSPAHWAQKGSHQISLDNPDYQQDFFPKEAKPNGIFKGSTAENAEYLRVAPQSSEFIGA

IC50 [1]: 29 nM | IC50 [2]: 10 nM | IC50 [3]: 242 nM | IC50 [4]: > 1000 nM | IC50 (A549 [5]): 2530 nM | IC50 (NCI-H1975 [6]): 1560 nM | inhibition [22]: 60.8%
SMILES: COc1cc(N(C)CCN(C)C)c(NC(=O)c2ccncn2)cc1Nc1nccc(-c2cn(C)c3ccccc23)n1
Activity (A549 [7]): Dde | Activity (A549 [8]): Dde | Activity (NCI-H1975 [9]): Dde | Activity (NCI-H1975 [10]): Dde | inhibition (A549 [11]): Active | inhibition (NCI-H1975 [12]): Active | Activity (NCI-H1975 [13]): 22.67% | Activity (NCI-H1975 [14]): 18.36% | Activity (NCI-H1975 [15]): 12.55% | Activity (NCI-H1975 [16]): 31.18% | Activity (NCI-H1975 [17]): 31.02% | Activity (NCI-H1975 [18]): 30.13% | Activity (NCI-H1975 [19]): 46.15% | Activity (NCI-H1975 [20]): 50.62% | Activity (NCI-H1975 [21]): 57.32%
